From patent US20090047246A1, “NOVEL INHIBITORS OF HEPATITIS C VIRUS REPLICATION” (InterMune, Inc., priority 2007, published 2009)
pIC50: −log10 of the molar value.

The compounds below were run against T1, HCV NS3 helicase (Hepatitis C virus genotype 1b, UniProt P26663) (assay: HCV Helicase Prompt FRET Assay (Example A)). Details: HCV NS3 helicase; tables do not say whether Example A or Example B assay; read-out: IC50 Activity.
T1 construct: full-length NS3 (1-631), purified at Array BioPharma
Format: biochemical
Outline: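 Full-length NS3 (1-631), 5 or 6 nM, preincubated 5 min with compound, then unwinds 50 nM FAM/BHQ-1 duplex substrate with 250 nM capture strand and 300 μM ATP in 25 mM MOPS pH 7.0, 1.5 mM MgCl2, 0.005% Triton X-100, 2% DMSO. Fluorescence (485/535 nm) followed ~30 min at room temperature; IC50 from initial rates by 4- or 5-parameter fit.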

T1 sequence (P26663 1027-1657): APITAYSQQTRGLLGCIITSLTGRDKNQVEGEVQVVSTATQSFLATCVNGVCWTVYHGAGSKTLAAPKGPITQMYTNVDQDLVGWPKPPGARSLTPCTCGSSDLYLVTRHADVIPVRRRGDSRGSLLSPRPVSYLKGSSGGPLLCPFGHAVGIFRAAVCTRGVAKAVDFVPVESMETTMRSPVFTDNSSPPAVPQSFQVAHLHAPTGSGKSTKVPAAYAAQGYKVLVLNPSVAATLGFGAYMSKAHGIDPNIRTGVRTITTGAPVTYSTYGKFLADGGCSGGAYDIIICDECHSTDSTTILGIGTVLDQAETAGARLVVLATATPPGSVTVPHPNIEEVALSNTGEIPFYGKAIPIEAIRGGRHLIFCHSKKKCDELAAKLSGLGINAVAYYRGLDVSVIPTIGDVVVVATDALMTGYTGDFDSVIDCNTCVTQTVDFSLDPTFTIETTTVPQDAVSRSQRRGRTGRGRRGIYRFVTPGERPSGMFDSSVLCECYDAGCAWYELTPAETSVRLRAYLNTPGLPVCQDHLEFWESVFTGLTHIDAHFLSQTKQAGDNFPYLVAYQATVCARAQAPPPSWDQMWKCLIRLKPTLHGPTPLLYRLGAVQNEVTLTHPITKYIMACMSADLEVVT

| Compound | pIC50 |
| --- | --- |
| CN(c1cccc(Cn2cc(CC(=O)O)c3ccccc32)c1)c1ccccc1Cl [Example 523] | > 5.00 |
| CN(c1cccc(Cl)c1)c1cccc(Cn2cc(CC(=O)O)c3ccccc32)c1 [Example 524] | > 5.00 |
| CN(c1ccc(Cl)cc1)c1cccc(Cn2cc(CC(=O)O)c3ccccc32)c1 [Example 525] | > 5.00 |
| COc1ccccc1N(C)c1cccc(Cn2cc(CC(=O)O)c3ccccc32)c1 [Example 526] | 4.30 to 5.00 |
| COc1cccc(N(C)c2cccc(Cn3cc(CC(=O)O)c4ccccc43)c2)c1 [Example 527] | > 5.00 |
| COc1ccc(N(C)c2cccc(Cn3cc(CC(=O)O)c4ccccc43)c2)cc1 [Example 528] | > 5.00 |
| CN(c1cccc(Cn2cc(CC(=O)O)c3ccccc32)c1)c1ccccc1C(F)(F)F [Example 529] | > 5.00 |
| CN(c1cccc(Cn2cc(CC(=O)O)c3ccccc32)c1)c1cccc(C(F)(F)F)c1 [Example 530] | > 5.00 |
| CN(c1ccc(C(F)(F)F)cc1)c1cccc(Cn2cc(CC(=O)O)c3ccccc32)c1 [Example 531] | > 5.00 |
| CN(c1cccc(Cn2cc(CC(=O)O)c3ccccc32)c1)c1cccc(F)c1F [Example 533] | > 5.00 |
| CN(c1cccc(Cn2cc(CC(=O)O)c3ccccc32)c1)c1ccc(F)cc1F [Example 534] | 4.30 to 5.00 |
| CN(c1cccc(Cn2cc(CC(=O)O)c3ccccc32)c1)c1cc(F)ccc1F [Example 535] | 4.30 to 5.00 |
| CN(c1cccc(Cn2cc(CC(=O)O)c3ccccc32)c1)c1c(F)cccc1F [Example 536] | 4.30 to 5.00 |
| CN(c1cccc(Cn2cc(CC(=O)O)c3ccccc32)c1)c1cccc(Cl)c1Cl [Example 537] | > 5.00 |
| CN(c1cccc(Cn2cc(CC(=O)O)c3ccccc32)c1)c1ccc(Cl)cc1Cl [Example 538] | > 5.00 |
| CN(c1cccc(Cn2cc(CC(=O)O)c3ccccc32)c1)c1cc(Cl)ccc1Cl [Example 539] | > 5.00 |
| CN(c1cccc(Cn2cc(CC(=O)O)c3ccccc32)c1)c1c(Cl)cccc1Cl [Example 540] | > 5.00 |
| CN(c1cccc(Cn2cc(CC(=O)O)c3ccccc32)c1)c1ccc(Cl)c(Cl)c1 [Example 541] | > 5.00 |
| COc1ccc(N(C)c2cccc(Cn3cc(CC(=O)O)c4ccccc43)c2)c(OC)c1 [Example 542] | > 5.00 |
| COc1ccc(OC)c(N(C)c2cccc(Cn3cc(CC(=O)O)c4ccccc43)c2)c1 [Example 543] | > 5.00 |
| COc1ccc(N(C)c2cccc(Cn3cc(CC(=O)O)c4ccccc43)c2)cc1OC [Example 544] | > 5.00 |
| CN(c1cccc(Cn2cc(CC(=O)O)c3ccccc32)c1)c1ccc(C(F)(F)F)cc1C(F)(F)F [Example 545] | 4.30 to 5.00 |
| CN(c1cccc(Cn2cc(CC(=O)O)c3ccccc32)c1)c1cc(C(F)(F)F)ccc1C(F)(F)F [Example 546] | > 5.00 |
| CN(c1cccc(Cn2cc(CC(=O)O)c3ccccc32)c1)c1cc(C(F)(F)F)cc(C(F)(F)F)c1 [Example 547] | > 5.00 |
| CCOC(=O)Cc1cn(Cc2cccc(N(C)c3cc(Cl)ccc3Cl)c2)c2ccccc12 [Example 548] | > 5.00 |

The remaining lines, values ahead:

| pIC50 | Compound |
| --- | --- |
| < 4.30 | CCOC(=O)Cc1cn(Cc2cccc(N(C)c3ccc(Cl)c(Cl)c3)c2)c2ccccc12 [Example 550] |
| > 5.00 | CCN(c1cccc(Cn2cc(CC(=O)O)c3ccccc32)c1)c1ccccc1Cl [Example 552] |
| 4.30 to 5.00 | CCN(c1cccc(Cn2cc(CC(=O)O)c3ccccc32)c1)c1ccccc1C(F)(F)F [Example 553] |
| > 5.00 | CC(C)N(c1cccc(Cn2cc(CC(=O)O)c3ccccc32)c1)c1ccccc1Cl [Example 554] |
| > 5.00 | CC(C)N(c1cccc(Cn2cc(CC(=O)O)c3ccccc32)c1)c1ccccc1C(F)(F)F [Example 555] |
| > 5.00 | O=C(O)Cc1cn(Cc2ccc(Oc3cccc(F)c3F)cc2)c2ccccc12 [Example 584] |
| > 5.00 | O=C(O)Cc1cn(Cc2ccc(Oc3ccc(F)cc3F)cc2)c2ccccc12 [Example 585] |
| > 5.00 | O=C(O)Cc1cn(Cc2ccc(Oc3cc(F)ccc3F)cc2)c2ccccc12 [Example 586] |

Same assay, conditions: Table 21, compounds made using Scheme 28; read-out: IC50 Activity

| pIC50 | Compound |
| --- | --- |
| > 5.00 | CN(c1ccc(Cn2cc(CC(=O)O)c3ccccc32)cc1)c1cccc(F)c1 [Example 557] |
| 4.30 to 5.00 | CN(c1ccc(F)cc1)c1ccc(Cn2cc(CC(=O)O)c3ccccc32)cc1 [Example 558] |
| > 5.00 | CN(c1ccc(Cn2cc(CC(=O)O)c3ccccc32)cc1)c1ccccc1Cl [Example 559] |
| > 5.00 | CN(c1ccc(Cn2cc(CC(=O)O)c3ccccc32)cc1)c1cccc(Cl)c1 [Example 560] |
| > 5.00 | CN(c1ccc(Cl)cc1)c1ccc(Cn2cc(CC(=O)O)c3ccccc32)cc1 [Example 561] |
| 4.30 to 5.00 | COc1ccccc1N(C)c1ccc(Cn2cc(CC(=O)O)c3ccccc32)cc1 [Example 562] |
| > 5.00 | COc1cccc(N(C)c2ccc(Cn3cc(CC(=O)O)c4ccccc43)cc2)c1 [Example 563] |
| > 5.00 | COc1ccc(N(C)c2ccc(Cn3cc(CC(=O)O)c4ccccc43)cc2)cc1 [Example 564] |
| > 5.00 | CN(c1ccc(Cn2cc(CC(=O)O)c3ccccc32)cc1)c1ccccc1C(F)(F)F [Example 565] |
| > 5.00 | CN(c1ccc(Cn2cc(CC(=O)O)c3ccccc32)cc1)c1cccc(C(F)(F)F)c1 [Example 566] |
| > 5.00 | CN(c1ccc(Cn2cc(CC(=O)O)c3ccccc32)cc1)c1ccc(C(F)(F)F)cc1 [Example 567] |
| > 5.00 | CN(c1ccc(Cn2cc(CC(=O)O)c3ccccc32)cc1)c1cccc(F)c1F [Example 568] |
| > 5.00 | CN(c1ccc(Cn2cc(CC(=O)O)c3ccccc32)cc1)c1ccc(F)cc1F [Example 569] |
| > 5.00 | CN(c1ccc(Cn2cc(CC(=O)O)c3ccccc32)cc1)c1cc(F)ccc1F [Example 570] |
| 4.30 to 5.00 | CN(c1ccc(Cn2cc(CC(=O)O)c3ccccc32)cc1)c1c(F)cccc1F [Example 571] |
| > 5.00 | CN(c1ccc(Cn2cc(CC(=O)O)c3ccccc32)cc1)c1cccc(Cl)c1Cl [Example 572] |
| > 5.00 | CN(c1cccc(Cn2cc(CC(=O)O)c3ccccc32)c1)c1ccc(Cl)cc1Cl [Example 573] |
| > 5.00 | CN(c1ccc(Cn2cc(CC(=O)O)c3ccccc32)cc1)c1cc(Cl)ccc1Cl [Example 574] |
| > 5.00 | CN(c1ccc(Cn2cc(CC(=O)O)c3ccccc32)cc1)c1ccc(Cl)c(Cl)c1 [Example 575] |
| > 5.00 | CN(c1ccc(Cn2cc(CC(=O)O)c3ccccc32)cc1)c1c(Cl)cccc1Cl [Example 576] |
| 4.30 to 5.00 | COc1ccc(N(C)c2ccc(Cn3cc(CC(=O)O)c4ccccc43)cc2)c(OC)c1 [Example 577] |
| > 5.00 | COc1ccc(OC)c(N(C)c2ccc(Cn3cc(CC(=O)O)c4ccccc43)cc2)c1 [Example 578] |
| 4.30 to 5.00 | COc1ccc(N(C)c2ccc(Cn3cc(CC(=O)O)c4ccccc43)cc2)cc1OC [Example 579] |
| > 5.00 | CN(c1ccc(Cn2cc(CC(=O)O)c3ccccc32)cc1)c1ccc(C(F)(F)F)cc1C(F)(F)F [Example 580] |
| > 5.00 | CN(c1ccc(Cn2cc(CC(=O)O)c3ccccc32)cc1)c1cc(C(F)(F)F)ccc1C(F)(F)F [Example 581] |
| > 5.00 | CN(c1ccc(Cn2cc(CC(=O)O)c3ccccc32)cc1)c1cc(C(F)(F)F)cc(C(F)(F)F)c1 [Example 582] |
| 4.30 to 5.00 | CCOC(=O)Cc1cn(Cc2ccc(N(C)c3ccccc3F)cc2)c2ccccc12 [Example 583] |
